# From patent US8552052B2, “Use of diindolylmethane-related indoles for the treatment and prevention of respiratory syncytial virus associated conditions” (BioResponse, L.L.C., priority 2004, dated 2013)
# “Also recorded” adds a separate entry of the source.
# Columns and labels:
# [1] = test system: RSV infected A549 pulmonary epithelial cells; assay: Phosphohistone (H2A.X Phosphorylation) assay of apoptosis in RSV infected A549 cells; assay type: cell-based, human; settings: 18 hour treatment, FIG. 1
# Procedure: Cell Culture—A549 cells, a tumor cell line with properties of normal airway epithelial cells, were obtained from American Type Culture Collection (ATCC, Manassas, Va.) and incubated at 37° C. in 5% CO2. The cells were cultured in Eagle's minimum essential medium (MEM, Invitrogen) supplemented with 10% fetal bovine serum (HyClone, Logan, Utah) and […] gentamicin. The A549 cells were subcultured by harvesting in 0.12% trypsin no more than 20 times from stock originally designated at pass 70. To minimize effects of exogenous growth factors or cytokines in this system, the supplemented serum concentration was reduced to 0.5% 24 h prior to and during all experiments with RSV infection.
# RSV Virus—RSV, strain A2, was obtained from Advanced Biotechnologies Inc. (Columbia, Md.) and was used directly as supplied for all experiments. The viral preparation was tested to have a TCID50 titer of ˜1×10^9 in Hep-2 cells at 7 days. […]
# Cell Viability and Death Assays—Induction of Apoptosis by DIM in RSV infected A549 cell was measured according to a Phosphohistone Assay. […] The detection was done by LumiGLO™ chemiluminescent substrate and the plate was read in a microplate luminometer after 10-20 min. Luminescence indicated the extent of apoptosis in the sample examined.
# RSV Long strain = assay: Pulmonary viral assay (pfu in lung homogenate) in RSV infected BALB/c mice; assay type: in vivo
# Procedure: The Following Experimental BALB/c Groups and Treatment Protocol Using DIM were Studied: • 1. RSV infected positive control group, infected with RSV and injected subcutaneously (SC) once daily with DMSO/Phosphate Buffered Saline (PBS) vehicle. • 2. RSV infected, Low dose Parenteral DIM group (15 mg/kg/day), injected SC once daily with DIM suspension • 3. RSV infected, High dose DIM Group (150 mg/kg/day), injected SC once daily with DIM suspension • 4. RSV infected, orally treated DIM group (250 mg/kg/day from absorption enhanced DIM [Example 6.1]), added to powdered feed • 5. Uninfected negative control group, nasally administered vehicle only, and injected subcutaneously (SC) once daily with DMSO/PBS vehicle
# Animals, cells, and viruses. Pathogen-free 8-10 week old female BALB/c mice, weighing between 16 and 20 g, were purchased from Charles River Laboratories. All mice were housed in cages covered with barrier filters and are fed mouse chow and water ad libitum. HeLa cells are maintained in Eagle's minimal essential medium supplemented with glutamine, gentamicin, penicillin G, and 10% fetal bovine serum.
# RSV stock. RSV Long strain was grown on HEp-2 monolayers (American Type Culture Collection, Manassas, Va.). The extracellular media containing liberated progeny virus was collected at about 70 hr. The virus was purified and concentrated by precipitation with polyethylene glycol (MW 8,000) and sucrose gradient centrifugation. The final preparation had infectious titer in the range of 10^8-10^9 pfu/ml and was stored frozen at −80° C. in small portions. All infectious viral titers (plaque forming units [pfu]) were determined by agarose plaque assay on HEp-2 monolayers with neutral red staining using standard procedures. Another suitable strain is the A2 strain of RSV (American Type Culture Collection).
# Mouse treatment, infection and harvest. […]
# Pulmonary viral assay and clinical measurements. […] Respiratory rates (breaths per min) were determined by counting over a period of 2-3 mins. […]
# [2] = test system: Human Papilloma Virus (HPV) oncogene altered cervical cancer cell lines; settings: cited from earlier work
smiles,measurement,setting,value
"c1ccc2c(Cc3c[nH]c4ccccc34)c[nH]c2c1 [DIM, 3,3′-diindolylmethane]",cells undergoing apoptosis,"[1]; DIM 70, 210, 700 nM, LY294002 2 and 5 μM","accelerated apopotosis in RSV infected cells; also recorded: significant, dose-related increase in cells undergoing apoptosis"
same,Promotion of apoptosis by DIM compared with LY294002,[1]; nM DIM,more potent than that seen with LY294002
same,RSV growth in the lung / viral counts in lung tissue,"RSV Long strain; DIM administered orally or parenterally, BALB/c mice",inhibit RSV growth in the lung; also recorded: significant reduction in viral counts in lung tissue
same,pulmonary viral count,"RSV Long strain; SC administered DIM, 10 days pi, vs vehicle treated, RSV-infected controls, FIG. 4",significantly reduced pulmonary viral count
same,intrapulmonary replication of nasally administered RSV virus,"RSV Long strain; oral 250 mg/kg/day and SC 15 and 150 mg/kg/day, 6 days post infection (pi), vs vehicle treated RSV-infected controls, FIG. 4",significantly reduced the intrapulmonary replication
same,induction of apoptosis,[2]; HPV oncogene altered cervical cancer cell lines,specifically induce apoptosis
same,induction of markers of apoptosis compared with I3C,[2]; cell culture,more active than I3C
